Patent publication US10894817B2, “Fatty acid modified urocortin-2 analogs for the treatment of diabetes and chronic kidney disease” (priority 2016, dated 2021)
Read-outs that look alike come from different tables or passages of the source. Starred links: 1 amine or outer side, 2 acyl side, 3 side chain; linkers in the order of their positions; H or OH if unused. Non-standard residues stand in square brackets, D forms with d. Residues, ends and D or L forms follow the SMILES beside them. Groups on a side chain read outwards from the residue. *: point of attachment. C20 diacid = O=C(O)CCCCCCCCCCCCCCCCCCC(=O)*; C18 diacid = O=C(O)CCCCCCCCCCCCCCCCC(=O)*; γGlu = O=C(O)[C@H](CCC(=O)[*:2])N[*:1]; Palmitoyl = CCCCCCCCCCCCCCCC(=O)*; NMeI = CC[C@H](C)[C@H](NC)C(=O)O; AEEA = NCCOCCOCC(=O)O

Target: T1, human CRHR2b (Homo sapiens, UniProt Q13324)
T1 construct: expressed in transfected cells; host or cells: Chinese Hamster Ovary (CHO) cells, transient transfection
T1 sequence (Q13324 1-438 isoform Q13324-2): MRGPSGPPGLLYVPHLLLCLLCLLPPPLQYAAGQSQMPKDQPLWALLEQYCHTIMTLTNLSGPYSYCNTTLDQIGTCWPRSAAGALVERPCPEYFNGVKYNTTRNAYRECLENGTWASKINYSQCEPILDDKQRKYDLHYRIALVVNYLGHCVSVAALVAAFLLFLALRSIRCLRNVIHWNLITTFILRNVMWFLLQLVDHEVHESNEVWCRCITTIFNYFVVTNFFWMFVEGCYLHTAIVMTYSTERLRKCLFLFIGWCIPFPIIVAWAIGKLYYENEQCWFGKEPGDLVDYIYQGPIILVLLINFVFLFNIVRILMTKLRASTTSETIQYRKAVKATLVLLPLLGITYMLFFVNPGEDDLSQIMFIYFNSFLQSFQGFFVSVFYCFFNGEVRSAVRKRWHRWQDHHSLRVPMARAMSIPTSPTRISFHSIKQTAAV
Experiment: human CRHR2b cell-based cAMP assay
Experimental: CRHR agonistic activity is measured in a cell-based cAMP assay. Serial dilutions of the test peptides are made in assay buffer containing Hank's Balanced Salt Solution (HBSS, without phenol red) supplemented with 20 mM HEPES and 0.05% lactalbumin enzymatic hydrolysate (LAH) (“assay buffer”). […] A one to three dilution of the test peptides is used in both assays. Receptor over-expressing Chinese Hamster Ovary (CHO) cell line is used for the human CRHR2b assay. […] AF011406.1). Forty-eight hours after the transfection, the cells are centrifuged to remove the culture media and resuspended in fetal bovine serum containing 5% DMSO. They are cryofrozen and stored in vials in liquid nitrogen (20×10^6 cells/ml/vial). On the day of the assay, cells are thawed and resuspended in cold 30 ml culture media supplemented with 20 mM HEPES. The cells are then centrifuged to remove the media and washed once with HBSS supplemented with 20 mM HEPES. Finally, following the last centrifugation, the cells are resuspended in assay buffer. Thirty-thousand cells are used in the human CRHR2b assay for each treatment. The cells are dispensed into Costar 96-well black polystyrene half area EIA/RIA plates (Corning Incorporated, Corning, N.Y.) followed by the addition of the diluted peptides, each at a volume of 20 μL. The agonist induced cAMP levels are detected using a HTRF cAMP Dynamic 2 kit (CisBio, Bedford, Mass.). After incubation at 37° C. for 30 min, the assay is stopped by cell lysis via the addition of 20 μL of d2-labeled cAMP and followed by 20 μL of cryptate-labeled anti-cAMP antibody, as described by the manufacturer. Cellular cAMP (as a result of agonist stimulation) competes with the d2-labeled cAMP for binding to the antibody. HTRF detection is performed on an Envision plate reader (Perkin Elmer Life and Analytical Sciences, Waltham, Mass.) by measuring ratiometric emission at 620 and 665 nm after excitation at 320 nm. The data are converted to picomoles of cAMP using a standard curve obtained from the same assay performed with varying concentrations of unlabeled cAMP. […] The data are analyzed using a Curve Fitting Tool to calculate ED50. Numeric values shown below in Table 1 represent the mean of multiple runs (number of runs shown in parentheses) following the mean value±SEM.

[1] = cAMP assay, Table 26, compounds of Example 9, read-out: hCRHR2b Average EC50

Structure (SMILES) | EC50 [1] | EC50
CCCCCCCCCCCCCCCC(=O)N[C@@H](CCC(=O)NCCCC[C@H](NC(=O)[C@H](CCC(N)=O)NC(=O)[C@H](CCCCN)NC(=O)[C@H](CCC(=O)O)NC(=O)[C@H](CCCCN)NC(=O)[C@H](CCC(=O)O)NC(=O)[C@H](CCC(N)=O)NC(=O)[C@H](CCCCN)NC(=O)[C@H](CCC(=O)O)NC(=O)[C@H](CCC(N)=O)NC(=O)[C@H](CCC(=O)O)NC(=O)[C@H](CC(C)C)NC(=O)[C@H](CC(C)C)NC(=O)[C@@H](NC(=O)[C@H](CCC(N)=O)NC(=O)[C@H](CC(C)C)NC(=O)[C@H](CC(C)C)NC(=O)CNC(=O)[C@@H](NC(=O)[C@@H]1CCCN1C(=O)[C@@H](NC(=O)[C@H](CC(=O)O)NC(=O)[C@H](CC(C)C)NC(=O)[C@H](CO)NC(=O)[C@H](CC(C)C)NC(=O)[C@@H](NC(=O)[C@@H](N)[C@@H](C)CC)C(C)C)C(C)C)[C@@H](C)CC)[C@@H](C)CC)C(=O)N[C@@H](C)C(=O)N[C@H](C(=O)N[C@H](C(=O)N[C@@H](CC(N)=O)C(=O)N[C@@H](C)C(=O)N[C@@H](CCCNC(=N)N)C(=O)N[C@H](C(=O)N[C@@H](CC(C)C)C(=O)N[C@@H](C)C(=O)N[C@@H](CCCNC(=N)N)C(=O)N[C@H](C(N)=O)C(C)C)[C@@H](C)CC)[C@@H](C)O)[C@@H](C)O)C(=O)O [Compound 35] (H-IVLSLDVPIGLLQILLEQEKQEKEKQK([γGlu-Palmitoyl])ATTNARILARV-NH2) | 404 nM | –
CC[C@H](C)[C@H](N)C(=O)N[C@H](C(=O)N[C@@H](CC(C)C)C(=O)N[C@@H](CO)C(=O)N[C@@H](CC(C)C)C(=O)N[C@@H](CC(=O)O)C(=O)N[C@H](C(=O)N1CCC[C@H]1C(=O)N[C@H](C(=O)NCC(=O)N[C@@H](CC(C)C)C(=O)N[C@@H](CC(C)C)C(=O)N[C@@H](CCC(N)=O)C(=O)N[C@H](C(=O)N[C@@H](CC(C)C)C(=O)N[C@@H](CC(C)C)C(=O)N[C@@H](CCCCNC(=O)COCCOCCNC(=O)COCCOCCNC(=O)CC[C@H](NC(=O)CC[C@H](NC(=O)CCCCCCCCCCCCCCCCC(=O)O)C(=O)O)C(=O)O)C(=O)N[C@@H](CCC(N)=O)C(=O)N[C@@H](CCC(=O)O)C(=O)N[C@@H](CCCCN)C(=O)N[C@@H](CCC(N)=O)C(=O)N[C@@H](CCC(=O)O)C(=O)N[C@@H](CCCCN)C(=O)N[C@@H](CCC(=O)O)C(=O)N[C@@H](CCCCN)C(=O)N[C@@H](CCC(N)=O)C(=O)N[C@@H](CCC(N)=O)C(=O)N[C@@H](C)C(=O)N[C@H](C(=O)N[C@@H](CCC(=O)O)C(=O)N[C@@H](CC(N)=O)C(=O)N[C@@H](C)C(=O)N[C@@H](CCC(N)=O)C(=O)N[C@H](C(=O)N[C@@H](CC(C)C)C(=O)N[C@@H](C)C(=O)N[C@@H](CCC(N)=O)C(=O)N[C@H](C(N)=O)C(C)C)[C@@H](C)CC)[C@@H](C)O)[C@@H](C)CC)[C@@H](C)CC)C(C)C)C(C)C [Compound 53] (H-IVLSLDVPIGLLQILLK([AEEA-AEEA-γGlu-γGlu-C18 diacid])QEKQEKEKQQATENAQILAQV-NH2) | – | 4.01 nM
CC[C@H](C)[C@H](NC)C(=O)N[C@H](C(=O)N[C@@H](CC(C)C)C(=O)N[C@@H](CO)C(=O)N[C@@H](CC(C)C)C(=O)N[C@@H](CC(=O)O)C(=O)N[C@H](C(=O)N1CCC[C@H]1C(=O)N[C@H](C(=O)NCC(=O)N[C@@H](CC(C)C)C(=O)N[C@@H](CC(C)C)C(=O)N[C@@H](CCC(N)=O)C(=O)N[C@H](C(=O)N[C@@H](CC(C)C)C(=O)N[C@@H](CC(C)C)C(=O)N[C@@H](CCC(=O)O)C(=O)N[C@@H](CCC(N)=O)C(=O)N[C@@H](CCC(=O)O)C(=O)N[C@@H](CCCCN)C(=O)N[C@@H](CCC(N)=O)C(=O)N[C@@H](CCC(=O)O)C(=O)N[C@@H](CCCCN)C(=O)N[C@@H](CCC(=O)O)C(=O)N[C@@H](CCCCN)C(=O)N[C@@H](CCC(N)=O)C(=O)N[C@@H](CCC(N)=O)C(=O)N[C@@H](C)C(=O)N[C@@H](CCCCNC(=O)CC[C@H](NC(=O)CC[C@H](NC(=O)CCCCCCCCCCCCCCCCCCC(=O)O)C(=O)O)C(=O)O)C(=O)N[C@@H](CCC(=O)O)C(=O)N[C@@H](CC(N)=O)C(=O)N[C@@H](C)C(=O)N[C@@H](CCC(=O)O)C(=O)N[C@H](C(=O)N[C@@H](CC(C)C)C(=O)N[C@@H](C)C(=O)N[C@@H](CCC(N)=O)C(=O)N[C@H](C(N)=O)C(C)C)[C@@H](C)CC)[C@@H](C)CC)[C@@H](C)CC)C(C)C)C(C)C [Compound 58] (H-[NMeI]VLSLDVPIGLLQILLEQEKQEKEKQQAK([γGlu-γGlu-C20 diacid])ENAEILAQV-NH2) | 3.79 nM | –
CC[C@H](C)[C@H](N)C(=O)N[C@H](C(=O)N[C@@H](CC(C)C)C(=O)N[C@@H](CO)C(=O)N[C@@H](CC(C)C)C(=O)N[C@@H](CC(=O)O)C(=O)N[C@H](C(=O)N1CCC[C@H]1C(=O)N[C@H](C(=O)NCC(=O)N[C@@H](CC(C)C)C(=O)N[C@@H](CC(C)C)C(=O)N[C@@H](CCC(N)=O)C(=O)N[C@H](C(=O)N[C@@H](CC(C)C)C(=O)N[C@@H](CC(C)C)C(=O)N[C@@H](CCC(=O)O)C(=O)N[C@@H](CCC(N)=O)C(=O)N[C@@H](CCC(=O)O)C(=O)N[C@@H](CCCCN)C(=O)N[C@@H](CCC(N)=O)C(=O)N[C@@H](CCC(=O)O)C(=O)N[C@@H](CCCCN)C(=O)N[C@@H](CCC(=O)O)C(=O)N[C@@H](CCCCN)C(=O)N[C@@H](CCCCNC(=O)COCCOCCNC(=O)COCCOCCNC(=O)CC[C@H](NC(=O)CC[C@H](NC(=O)CCCCCCCCCCCCCCCCC(=O)O)C(=O)O)C(=O)O)C(=O)N[C@@H](CCC(N)=O)C(=O)N[C@@H](C)C(=O)N[C@H](C(=O)N[C@H](C(=O)N[C@@H](CC(N)=O)C(=O)N[C@@H](C)C(=O)N[C@@H](CCC(N)=O)C(=O)N[C@H](C(=O)N[C@@H](CC(C)C)C(=O)N[C@@H](C)C(=O)N[C@@H](Cc1c[nH]cn1)C(=O)N[C@H](C(N)=O)C(C)C)[C@@H](C)CC)[C@@H](C)O)[C@@H](C)O)[C@@H](C)CC)[C@@H](C)CC)C(C)C)C(C)C [Compound 47] (H-IVLSLDVPIGLLQILLEQEKQEKEKK([AEEA-AEEA-γGlu-γGlu-C18 diacid])QATTNAQILAHV-NH2) | 4.56 nM | –
CCCCCCCCCCCCCCCC(=O)N[C@@H](CCC(=O)NCCCC[C@H](NC(=O)[C@@H](NC(=O)[C@H](CCC(N)=O)NC(=O)[C@H](CC(C)C)NC(=O)[C@H](CC(C)C)NC(=O)CNC(=O)[C@@H](NC(=O)[C@@H]1CCCN1C(=O)[C@@H](NC(=O)[C@H](CC(=O)O)NC(=O)[C@H](CC(C)C)NC(=O)[C@H](CO)NC(=O)[C@H](CC(C)C)NC(=O)[C@@H](NC(=O)[C@@H](N)[C@@H](C)CC)C(C)C)C(C)C)[C@@H](C)CC)[C@@H](C)CC)C(=O)N[C@@H](CC(C)C)C(=O)N[C@@H](CCC(=O)O)C(=O)N[C@@H](CCC(N)=O)C(=O)N[C@@H](CCC(=O)O)C(=O)N[C@@H](CCCCN)C(=O)N[C@@H](CCC(N)=O)C(=O)N[C@@H](CCC(=O)O)C(=O)N[C@@H](CCCCN)C(=O)N[C@@H](CCC(=O)O)C(=O)N[C@@H](CCCCN)C(=O)N[C@@H](CCC(N)=O)C(=O)N[C@@H](CCC(N)=O)C(=O)N[C@@H](C)C(=O)N[C@H](C(=O)N[C@H](C(=O)N[C@@H](CC(N)=O)C(=O)N[C@@H](C)C(=O)N[C@@H](CCCNC(=N)N)C(=O)N[C@H](C(=O)N[C@@H](CC(C)C)C(=O)N[C@@H](C)C(=O)N[C@@H](CCCNC(=N)N)C(=O)N[C@H](C(N)=O)C(C)C)[C@@H](C)CC)[C@@H](C)O)[C@@H](C)O)C(=O)O [Compound 22] (H-IVLSLDVPIGLLQIK([γGlu-Palmitoyl])LEQEKQEKEKQQATTNARILARV-NH2) | 1.2 nM | –
